Key:
PC9 vec. cells = assay: Proliferation inhibition (in vitro), PC9 vec. control cells, CellTiter-Glo; assay type: cell-based; details: Homo sapiens, 96 h, 4 days culture
Experimental: The obtained PC9/AXL cells and PC9 vec. cells were inoculated into a 384-well plate, respectively, using an RPMI 1640 medium (Sigma). On the same day, a DMSO solution of the test compound depending on the test concentration or DMSO alone was added thereto, followed by culturing at 37° C. for 4 days in the presence of 5% CO2. Thereafter, the number of cells was measured using a cell count reagent (CellTiter-Glo™ Luminescent Cell Viability Assay (Promega)).

[1] = system: erlotinib-resistant HCC827 subcutaneous tumor; assay: Anti-tumor evaluation (in vivo), erlotinib-resistant HCC827 subcutaneous cancer-bearing mouse model; details: erlotinib 12.5 mg/kg/day and/or compound A 30 mg/kg/day, QD, po; for tumor volume on the starting day of administration: baseline, measured the day before start
Text: HCC827 cells (EGFR mutation-positive lung cancer cell line) were subcutaneously implanted to a dorsal part of an immunodeficient mouse (CB17/Icr-Prkdcscid/CrlCrlj, male, 4-week-old (Charles River Laboratories Japan, Inc.)) to prepare HCC827 subcutaneous cancer-bearing mice.

[2] = system: phosphorylated AXL in AXL/PC9 cells; assay: Western blot of phosphorylated AXL in AXL/PC9 cells; assay type: cell-based, human; details: compound A at 100 nM, phospho-AXL antibody

Row | Compound | IC50 (PC9 vec. cells) [µM] | tumor volume on the starting day of administration [1] [mm^3] | tumor decreasing effect [1] | AXL phosphorylation [2] | tumor volume after 12 days [1] [mm^3]
1 | C#Cc1cccc(Nc2ncnc3cc(OCCOC)c(OCCOC)cc23)c1 [erlotinib, reference compound] | 0.108 | 335.8 | did not show a tumor decreasing effect |  | 
2 | CCc1nc(C(N)=O)c(Nc2ccc(N3CCC(N4CCN(C)CC4)CC3)c(OC)c2)nc1NC1CCOCC1 [compound A, 6-ethyl-3-({3-methoxy-4-[4-(4-methylpiperazin-1-yl)piperidin-1-yl]phenyl}amino)-5-(tetrahydro-2H-pyran-4-ylamino)pyrazine-2-carboxamide] |  | 339.2 | did not show a tumor decreasing effect | completely inhibited | 739.2

Reference: US11925638B2, “Pharmaceutical composition comprising diamino heterocyclic carboxamide compound as active ingredient” (ASTELLAS PHARMA INC., priority 2014, dated 2024)
